Experimental data taken from publication PMC6278664, “Highly Cancer Selective Antiproliferative Activity of Natural Prenylated Flavonoids” (Molecules, 2018).

test system: MCF7 human breast cancer cell line; test: SRB antiproliferative assay, MCF7; type: cell-based; conditions: SRB, 72 h, mean ± SD
Procedure: (§1) We determined the effect of various structural factors in the substrates on the antiproliferative activity against those selected to the study cell lines: the location and/or the presence of the prenyl group, the chalcone/flavanone skeleton and the presence of an O-methyl group at C-5 in flavanones. Flavonoids presented in Figure 1 were tested for the antiproliferative activity towards eight cancer cell lines including estrogen-dependent (MCF7 and T-47D) and two normal ones (HLMEC and MCF 10A). The in vitro antiproliferative activity was measured using SRB assay. The results are presented in Figure 2 (and in the supplement in Table S1). The antiproliferative activity was measured separately for each of the experiments and given as the average IC50 (the concentration of tested compound which inhibits 50% of the cells population). Cisplatin (CP), a common anticancer drug, was used as a positive control.
(§2) The following established in vitro cell lines were applied: MCF7, T-47D, MDA-MB-231 (human breast cancer cell line), A2780 (human ovarian cancer cell line), A2780cis (human cisplatin-resistant ovarian cancer cell line), PC-3 and DU 145 (human prostate cancer cell lines), HT-29 (human colon cancer cell line), HLMEC (human lung microvascular endothelial cell line), and MCF 10A (human mammary epithelial cells line).
(§3) The cell lines: MDA-MB-231, HT-29, PC-3, DU 145, and MCF 10A were obtained from the American Type Culture Collection (Rockville, MD, USA), MCF7, T-47D, A2780, A2780cis from the European Collection Cell Cultures (Sigma-Aldrich, Chemie GmbH, Steinheim, Germany), while the HLMEC cell line was obtained by M. Paprocka from the institute. All cell lines are being maintained in the Institute of Immunology and Experimental Therapy (Wrocław, Poland). DU 145 and MCF7 cells were cultured in Eagle medium (supplemented with 4mM L-glutamine, 10% fetal bovine serum, 1 mM sodium pyruvate for DU 145 cells or 2 mM L-glutamine, 1% mem non-essential amino acid solution and 8 µg/mL insulin and 10% fetal bovine serum for MCF7). […] HT-29 and T-47D cell lines were cultured in RPMI 1640 + OPTI-MEM medium supplemented with 2 mM L-glutamine, 5% fetal bovine serum and 8 µg/mL of insulin (T-47D) or 1 mM sodium pyruvate (HT-29). MDA-MB-231, PC-3 and HLMEC cell lines were cultured in RPMI 1640 medium supplemented with 2 mM L-glutamine and 10% fetal bovine serum. Medium for MCF 10A cell line consisted of F-12 nutrient mixture supplemented with cholera toxin (0.05 µg/mL), insulin (10 µg/mL), hydrocortisone (0.5 µg/mL), 5% horse serum, and EGFH (20 ng/mL). All the culture media contained antibiotics: 100 units/mL penicillin (Polfa Tarchomin SA, Warsaw, Poland), and 100 µg/mL streptomycin (Sigma-Aldrich, Chemie GmbH, Steinheim, Germany). All cell lines were grown at 37 °C with 5% CO2 humidified atmosphere.
(§4) Twenty-four hours before the incubation with the tested compounds, the cells were seeded in 96-plates (Sarstedt, Germany) at a density of 1 × 10^4 cells per well (0.75 × 10^4 per well for MCF7 and 1 × 10^3 per well for HLMEC) in 100 µL of a culture medium.
(§5) Each agent at each concentration (from 0.1 to 100 µg/mL) was tested in a single experiment, which was repeated four to five times. […] Cisplatin was used as a reference drug.
(§6) The results were calculated as the IC50 (inhibitory concentration 50%)—the concentration of the tested compound which inhibits 50% of the cells population. IC50 values were calculated for each experiment separately and mean values ± SD are presented in the Table S1 in the Supplementary Materials. Each compound at each concentration was tested in triplicate in a single experiment, which was repeated four to five times.
(§7) The cells were fixed in situ by gently adding cold 50% trichloroacetic acid (50 µL per well). The plates were incubated at 4 °C for 1h and then washed five times with tap water. […]

Question: For `N.N.[Cl][Pt][Cl]` [Cisplatin (CP), Cisplatin, reference compound], which IC50 is on record?
Answer: 6.29 ± 1.05 µM

test system: MCF 10A human mammary epithelial cells line; test: SRB antiproliferative assay, MCF 10A (normal); type: cell-based; conditions: 72 h, mean ± SD, read-out: Normal cell line, IC50, MCF-10A
Procedure: as §1, §2, §3, §4, §5, §6, §7

Question: For `N.N.[Cl][Pt][Cl]` [Cisplatin (CP), Cisplatin, reference compound], which IC50 is on record?
Answer: 13.6 ± 4.93 µM

test system: A2780 human ovarian cancer cell line; test: SRB antiproliferative assay, A2780; type: cell-based; conditions: SRB, 72 h, mean ± SD; read-out: Cancer cell line, IC50, A-2780
Procedure: as §1, §2, §3, §4, §5, §6, §7

Question: How did the IC50 turn out when `N.N.[Cl][Pt][Cl]` [Cisplatin (CP), Cisplatin, reference compound] was run?
Answer: 0.97 ± 0.46 µM

test system: PC-3 human prostate cancer cell line; test: SRB antiproliferative assay, PC-3; type: cell-based; conditions: SRB, 72 h, mean ± SD
Procedure: as §1, §2, §3, §4, §5, §6, §7

Question: `N.N.[Cl][Pt][Cl]` [Cisplatin (CP), Cisplatin, reference compound] was tested. Which IC50 did it give?
Answer: 11.4 ± 2.23 µM

test system: T-47D human breast cancer cell line; test: SRB antiproliferative assay, T-47D; type: cell-based; conditions: SRB, 72 h, mean ± SD
Procedure: as §1, §2, §3, §4, §5, §6, §7

Question: `N.N.[Cl][Pt][Cl]` [Cisplatin (CP), Cisplatin, reference compound] was tested. Which IC50 did it give?
Answer: 22.2 ± 7.32 µM

test system: DU 145 human prostate cancer cell line; test: SRB antiproliferative assay, DU 145; type: cell-based; conditions: SRB, 72 h, mean ± SD
Procedure: as §1, §2, §3, §4, §5, §6, §7

Question: With `N.N.[Cl][Pt][Cl]` [Cisplatin (CP), Cisplatin, reference compound] as the compound, how does the IC50 read?
Answer: 2.73 ± 1.32 µM

test system: HLMEC human lung microvascular endothelial cell line; test: SRB antiproliferative assay, HLMEC (normal); type: cell-based; conditions: 72 h, mean ± SD

Question: With `N.N.[Cl][Pt][Cl]` [Cisplatin (CP), Cisplatin, reference compound] as the compound, how does the IC50 read?
Answer: 0.93 ± 0.28 µM

test system: MDA-MB-231 human breast cancer cell line; test: SRB antiproliferative assay, MDA-MB-231; type: cell-based; conditions: SRB, 72 h, mean ± SD
Procedure: as §1, §2, §3, §4, §5, §6, §7

Question: For `N.N.[Cl][Pt][Cl]` [Cisplatin (CP), Cisplatin, reference compound], which IC50 is on record?
Answer: 16.9 ± 5.45 µM

test system: HT-29 human colon cancer cell line; test: SRB antiproliferative assay, HT-29; type: cell-based; conditions: SRB, 72 h, mean ± SD

Question: `N.N.[Cl][Pt][Cl]` [Cisplatin (CP), Cisplatin, reference compound] was tested. Which IC50 did it give?
Answer: 9.56 ± 3.75 µM

test system: A2780cis human cisplatin-resistant ovarian cancer cell line; test: SRB antiproliferative assay, A2780cis; type: cell-based; conditions: SRB, 72 h, mean ± SD; read-out: Cancer cell line, IC50, A-2780cis
Procedure: as §1, §2, §3, §4, §5, §6, §7

Question: With `N.N.[Cl][Pt][Cl]` [Cisplatin (CP), Cisplatin, reference compound] as the compound, how does the IC50 read?
Answer: 12.1 ± 1.27 µM
